Molecules are shown by their SMILES.

One may read the IC50 as the point on the concentration scale where inhibition reaches its midpoint.

T1 sequence (Q8N884 whole entry): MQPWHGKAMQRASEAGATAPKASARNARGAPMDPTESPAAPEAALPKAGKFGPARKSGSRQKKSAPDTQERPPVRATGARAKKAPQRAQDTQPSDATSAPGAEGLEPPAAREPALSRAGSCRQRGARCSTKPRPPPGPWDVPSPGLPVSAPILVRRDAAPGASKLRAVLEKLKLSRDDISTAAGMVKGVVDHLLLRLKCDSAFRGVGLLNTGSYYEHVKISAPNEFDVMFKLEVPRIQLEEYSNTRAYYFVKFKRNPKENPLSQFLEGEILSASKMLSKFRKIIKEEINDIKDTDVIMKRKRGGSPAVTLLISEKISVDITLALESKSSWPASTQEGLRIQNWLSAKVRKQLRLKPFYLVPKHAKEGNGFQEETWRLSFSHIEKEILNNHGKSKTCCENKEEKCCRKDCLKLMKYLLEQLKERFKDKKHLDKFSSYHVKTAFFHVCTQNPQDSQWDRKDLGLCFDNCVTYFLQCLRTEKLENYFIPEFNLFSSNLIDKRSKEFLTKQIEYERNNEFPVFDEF

The first assay addresses T1, hcGAS (Homo sapiens, UniProt Q8N884). Briefly: hcGAS Kinase-Glo assay (ATP depletion). The note with it: 40 nM hcGAS, 100 μM ATP, 100 μM GTP, 25 nM dsDNA, 3 h incubation. It counts as biochemical. As for the experimental part:
cGAS catalyzes the cyclization of ATP and GTP to produce cGAMP, which is the activating ligand of STING. Human cGAS (hcGAS) inhibition can thus be quantified by measuring how much cGAMP is formed either indirectly, by monitoring ATP-depletion as in the hcGAS Kinase-Glo assay (as described below), or directly, such as using the hcGAS LCMS assay (as described below).
(i) hcGAS Kinase-Glo Assay
Compounds were tested for their human-cGAS […] inhibition activity using the methodology reported in Lama et al., “Development of human cGAS-specific small molecule inhibitors for repression of dsDNA-triggered interferon expression”, Nature Communications 10, Article number: 2261 (2019), with slight changes to some conditions as shown in Table B.
The results of the assay, expressed in IC50 values, are reported in Table D with the following designations: A represents an IC50 value<0.01 μM; B represents an IC50 value≥0.01 μM and <0.03 μM; C represents an IC50 value≥0.03 μM and <0.1 μM; D represents an IC50 value≥0.1.
On the technique in general: Kinase-Glo reads ATP consumption through a luciferase reaction.
On to `COc1c(NC23CC(C#N)(C2)C3)cc(C(=O)Nc2nnc(-n3nccc3C)s2)oc1=O` [Compound 45, 4-((3-cyanobicyclo[1.1.1]pentan-1-yl)amino)-3-methoxy-N-(5-(5-methyl-1H-pyrazol-1-yl)-1,3,4-thiadiazol-2-yl)-2-oxo-2H-pyran-6-carboxamide], for which the IC50 was in the range of 10 to 30 nM. Same read-out and setting: to `COC[C@H]1CCN(c2cc(C(=O)Nc3nnc(-n4nccc4C)s3)oc(=O)c2OC)C1` [Compound 87, (S)-3-methoxy-4-(3-(methoxymethyl)pyrrolidin-1-yl)-N-(5-(5-methyl-1H-pyrazol-1-yl)-1,3,4-thiadiazol-2-yl)-2-oxo-2H-pyran-6-carboxamide] belongs 30 to 100 nM; to `COc1c(N2CCC[C@H]2CO)cc(C(=O)Nc2nnc(-n3nccc3C)s2)oc1=O` [Compound 40, (S)-4-(2-(hydroxymethyl)pyrrolidin-1-yl)-3-methoxy-N-(5-(5-methyl-1H-pyrazol-1-yl)-1,3,4-thiadiazol-2-yl)-2-oxo-2H-pyran-6-carboxamide], 10 to 30 nM; to `COc1c(N[C@H]2COC[C@H]2O)cc(C(=O)Nc2nnc(-n3nccc3C)s2)oc1=O` [Compound 113, 4-(((3S,4S)-4-hydroxytetrahydrofuran-3-yl)amino)-3-methoxy-N-(5-(5-methyl-1H-pyrazol-1-yl)-1,3,4-thiadiazol-2-yl)-2-oxo-2H-pyran-6-carboxamide], 10 to 30 nM. Same read-out and setting: to `COc1c(N[C@@H]2CCS(=O)(=O)C2)cc(C(=O)Nc2nnc(-n3nccc3C)s2)oc1=O` [Compound 82, (R)-4-((1,1-dioxidotetrahydrothiophen-3-yl)amino)-3-methoxy-N-(5-(5-methyl-1H-pyrazol-1-yl)-1,3,4-thiadiazol-2-yl)-2-oxo-2H-pyran-6-carboxamide] belongs 30 to 100 nM. The same measure, in the same setting: for `COc1c(N2CCC(OC)CC2)cc(C(=O)Nc2nnc(-n3nccc3C)s2)oc1=O` [Compound 19, 3-methoxy-4-(4-methoxypiperidin-1-yl)-N-(5-(5-methyl-1H-pyrazol-1-yl)-1,3,4-thiadiazol-2-yl)-2-oxo-2H-pyran-6-carboxamide] the value was 10 to 30 nM; for `COc1c(N2CCOCC2)cc(C(=O)Nc2nnc(-n3nccc3C)s2)oc1=O` [Compound 186, 3-methoxy-N-(5-(5-methyl-1H-pyrazol-1-yl)-1,3,4-thiadiazol-2-yl)-4-morpholino-2-oxo-2H-pyran-6-carboxamide], 30 to 100 nM. The molecule `COc1c(NC2CC2)cc(C(=O)Nc2nnc(-n3nccc3C)s2)oc1=O` [Compound 180, 4-(cyclopropylamino)-5-methoxy-N-[5-(5-methylpyrazol-1-yl)-1,3,4-thiadiazol-2-yl]-6-oxopyran-2-carboxamide] came in with an IC50 of 30 to 100 nM. On the same count and under the same terms, for `COCCNc1cc(C(=O)Nc2nnc(-c3sncc3Cl)s2)oc(=O)c1OC` [Compound 139, N-(5-(4-chloroisothiazol-5-yl)-1,3,4-thiadiazol-2-yl)-3-methoxy-4-((2-methoxyethyl)amino)-2-oxo-2H-pyran-6-carboxamide] the value was 30 to 100 nM; for `COc1c(NC2CCS(=O)(=O)CC2)cc(C(=O)Nc2nnc(-n3nccc3C)s2)oc1=O` [Compound 29, 4-((1,1-dioxidotetrahydro-2H-thiopyran-4-yl)amino)-3-methoxy-N-(5-(5-methyl-1H-pyrazol-1-yl)-1,3,4-thiadiazol-2-yl)-2-oxo-2H-pyran-6-carboxamide], 30 to 100 nM. The molecule `COc1c(NCC(F)(F)F)cc(C(=O)Nc2nnc(-n3nccc3C)s2)oc1=O` [Compound 90, 3-methoxy-N-(5-(5-methyl-1H-pyrazol-1-yl)-1,3,4-thiadiazol-2-yl)-2-oxo-4-((2,2,2-trifluoroethyl)amino)-2H-pyran-6-carboxamide] registered an IC50 of 10 to 30 nM. `COc1c(NCCN(C)C)cc(C(=O)Nc2nnc(-n3nccc3C)s2)oc1=O` [Compound 181, 4-((2-(dimethylamino)ethyl)amino)-3-methoxy-N-(5-(5-methyl-1H-pyrazol-1-yl)-1,3,4-thiadiazol-2-yl)-2-oxo-2H-pyran-6-carboxamide] had an IC50 of at least 100 nM. Same read-out and setting: for `COC[C@@H]1CCCN1c1cc(C(=O)Nc2nnc(-n3nccc3C)s2)oc(=O)c1OC` [Compound 39, (S)-3-methoxy-4-(2-(methoxymethyl)pyrrolidin-1-yl)-N-(5-(5-methyl-1H-pyrazol-1-yl)-1,3,4-thiadiazol-2-yl)-2-oxo-2H-pyran-6-carboxamide] the value was 10 to 30 nM; for `COc1c(N[C@H]2C[C@@H](OC)C2)cc(C(=O)Nc2nnc(-n3nccc3C)s2)oc1=O` [Compound 9, 3-methoxy-4-(((1,3-cis)-3-methoxycyclobutyl)amino)-N-(5-(5-methyl-1H-pyrazol-1-yl)-1,3,4-thiadiazol-2-yl)-2-oxo-2H-pyran-6-carboxamide], 30 to 100 nM.

In the case of `COCCN(CCOC)c1cc(C(=O)Nc2nnc(-n3nccc3C)s2)oc(=O)c1OC` [Compound 63, 4-(bis(2-methoxyethyl)amino)-3-methoxy-N-(5-(5-methyl-1H-pyrazol-1-yl)-1,3,4-thiadiazol-2-yl)-2-oxo-2H-pyran-6-carboxamide], the IC50 is at least 100 nM.

`COc1c(N[C@H]2CC[C@@H](OC)CC2)cc(C(=O)Nc2nnc(-n3nccc3C)s2)oc1=O` [Compound 219, 3-methoxy-4-((1,4-cis-4-methoxycyclohexyl)amino)-N-(5-(5-methyl-1H-pyrazol-1-yl)-1,3,4-thiadiazol-2-yl)-2-oxo-2H-pyran-6-carboxamide] yielded an IC50 of 10 to 30 nM. Same read-out and setting: to `COc1c(NC23CC(C(F)F)(C2)C3)cc(C(=O)Nc2nnc(-n3nccc3C)s2)oc1=O` [Compound 115, 4-((3-(difluoromethyl)bicyclo[1.1.1]pentan-1-yl)amino)-3-methoxy-N-(5-(5-methyl-1H-pyrazol-1-yl)-1,3,4-thiadiazol-2-yl)-2-oxo-2H-pyran-6-carboxamide] belongs 10 to 30 nM; to `CCc1ccnn1-c1nnc(NC(=O)c2cc(NCCOC)c(OC)c(=O)o2)s1` [Compound 141, N-(5-(5-ethyl-1H-pyrazol-1-yl)-1,3,4-thiadiazol-2-yl)-3-methoxy-4-((2-methoxyethyl)amino)-2-oxo-2H-pyran-6-carboxamide], at least 100 nM. On the same count and under the same terms, to `COc1c(N[C@H](C)CO)cc(C(=O)Nc2nnc(-n3nccc3C)s2)oc1=O` [Compound 25, (R)-4-((1-hydroxypropan-2-yl)amino)-3-methoxy-N-(5-(5-methyl-1H-pyrazol-1-yl)-1,3,4-thiadiazol-2-yl)-2-oxo-2H-pyran-6-carboxamide] belongs 30 to 100 nM; to `COc1c(NC2COC2)cc(C(=O)Nc2nnc(-n3nccc3C)s2)oc1=O` [Compound 104, 3-methoxy-N-(5-(5-methyl-1H-pyrazol-1-yl)-1,3,4-thiadiazol-2-yl)-4-(oxetan-3-ylamino)-2-oxo-2H-pyran-6-carboxamide], 30 to 100 nM; to `COCCNc1cc(C(=O)Nc2nnc(-n3nccc3C(F)F)s2)oc(=O)c1OC` [Compound 144, N-(5-(5-(difluoromethyl)-1H-pyrazol-1-yl)-1,3,4-thiadiazol-2-yl)-3-methoxy-4-((2-methoxyethyl)amino)-2-oxo-2H-pyran-6-carboxamide], 10 to 30 nM. Same read-out and setting: for `COCCNc1cc(C(=O)Nc2nnc(-n3nccc3Cl)s2)oc(=O)c1OC` [Compound 148, N-[5-(5-chloropyrazol-1-yl)-1,3,4-thiadiazol-2-yl]-5-methoxy-4-[(2-methoxyethyl)amino]-6-oxopyran-2-carboxamide] the value was at least 100 nM.

`COc1c(N[C@@H]2CC[C@H]2O)cc(C(=O)Nc2nnc(-n3nccc3C)s2)oc1=O` (racemic) [Rac-37, 4-(((1R,2R)-2-hydroxycyclobutyl)amino)-3-methoxy-N-(5-(5-methyl-1H-pyrazol-1-yl)-1,3,4-thiadiazol-2-yl)-2-oxo-2H-pyran-6-carboxamide] gave an IC50 of 10 to 30 nM. In the case of `COc1c(N[C@H]2CC[C@H](O)CC2)cc(C(=O)Nc2nnc(-n3nccc3C)s2)oc1=O` [Compound 217], the 50% inhibitory concentration (IC50) was in the range of 10 to 30 nM.

A further assay addresses T1, hcGAS. Briefly: hcGAS LCMS assay (direct measurement of cGAMP production). It counts as biochemical. The note with it: 0.5 nM hcGAS, 100 μM ATP, 100 μM GTP, 25 nM dsDNA, 4 h incubation. In a few lines:
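Direct LC/MS readout of cGAMP formed: 4-h enzyme–substrate incubation with compound, stopped by acetonitrile/water quench carrying isotope-labelled cGAMP (0.15 mM) as standard. Potency reported as IC50 ranges.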
For the molecule `Cc1ccnn1-c1nnc(NC(=O)c2cc3c(c(=O)o2)OCCN3[C@@H]2CCC[C@@H]2C#N)s1` [Compound 223, 1-((1R,2S)-2-cyanocyclopentyl)-N-(5-(5-methyl-1H-pyrazol-1-yl)-1,3,4-thiadiazol-2-yl)-5-oxo-1,2,3,5-tetrahydropyrano[3,4-b][1,4]oxazine-7-carboxamide], the IC50 was in the range of 5 to 20 nM. The same measure, in the same setting: for `COc1c(N[C@H]2CCC[C@H]2O)cc(C(=O)Nc2nnc(-n3nccc3C)s2)oc1=O` [Compound 5, 4-(((1S,2R)-2-hydroxycyclopentyl)amino)-3-methoxy-N-(5-(5-methyl-1H-pyrazol-1-yl)-1,3,4-thiadiazol-2-yl)-2-oxo-2H-pyran-6-carboxamide] the value was 5 to 20 nM. On the same count and under the same terms, for `COC[C@H]1CC[C@H](COC)N1c1cc(C(=O)Nc2nnc(-n3nccc3C)s2)oc(=O)c1OC` (racemic) [Rac-209, 4-((trans)-2,5-bis(methoxymethyl)pyrrolidin-1-yl)-3-methoxy-N-(5-(5-methyl-1H-pyrazol-1-yl)-1,3,4-thiadiazol-2-yl)-2-oxo-2H-pyran-6-carboxamide] the value was 5 to 20 nM.

(Values after patent US20240270740A1, “INHIBITORS OF CYCLIC GMP-AMP SYNTHASE AND USES THEREOF” (Ventus Therapeutics U.S., Inc., priority 2022, published 2024).)
